Tests used:
hGLP-1R = molecular target: T1, hGLP-1R (Homo sapiens, UniProt P43220); settings: cited from earlier work
T1 construct: expressed in transfected cells
From the text: Second, agonism of the ectopic, hepatic GLP-1R creates a novel mechanism of drug clearance and may have effects on biodistribution.

[1] = Pharmacokinetic study in WT DIO mice dosed with control or Glp1r expressing AAV; format: in vivo, mouse; settings: Glp1r AAV treated vs control groups; Figure 2K
Protocol: Male C57Bl6 mice were randomized and evenly distributed to test groups (n = 8 per group) according to body weight. Animals received tail vein injection of the control AAV or mGLP-1R expressing AAV at a dose of 10^12 GC per mouse on day −7 for each study. […] Treatments were administered via daily SC injection for the duration of the study; dosage is indicated within each figure. Dose escalation regimens for each peptide were determined based on previously published studies. Body weight and food intake was measured every other day throughout the study.

C57Bl6 mice = assay: Cardiovascular radiotelemetry (heart rate, mean arterial pressure); format: in vivo, mouse; settings: Glp1r AAV treated mice; 0.5, 1 and 3 nmol/kg SC; Figure 2H
From the text: Male C57Bl6 mice (8–10 weeks old) were anesthetized with isoflurane and surgically implanted with pressure transmitters (PA-C10, DSI), with the catheter inserted into the left carotid artery and the body of the transmitter between the outer skin layer and abdomen wall in the left flank of the mouse. After recovering, they were singly housed and monitored in their home cages. Mice were given control and experimental AAV virus via tail vein injections at least 7 days prior to CV study. Transmitters were turned on via magnets and SC vehicle injections were administered 2 h after the onset of the light phase for baseline measurements. At t = 24 h, mice were grouped if needed and SC compound injections began. Stressors were allowed only from 9:00 AM to 11:00 AM during the light phase, with continuous sampling throughout the day. Measurements of pulse pressure, arterial pressures, and heart rate values were extracted with the DataQuest A.R.T. 4.1 software and averaged into 3-hour bins for analysis.

T1 sequence (P43220 24-463): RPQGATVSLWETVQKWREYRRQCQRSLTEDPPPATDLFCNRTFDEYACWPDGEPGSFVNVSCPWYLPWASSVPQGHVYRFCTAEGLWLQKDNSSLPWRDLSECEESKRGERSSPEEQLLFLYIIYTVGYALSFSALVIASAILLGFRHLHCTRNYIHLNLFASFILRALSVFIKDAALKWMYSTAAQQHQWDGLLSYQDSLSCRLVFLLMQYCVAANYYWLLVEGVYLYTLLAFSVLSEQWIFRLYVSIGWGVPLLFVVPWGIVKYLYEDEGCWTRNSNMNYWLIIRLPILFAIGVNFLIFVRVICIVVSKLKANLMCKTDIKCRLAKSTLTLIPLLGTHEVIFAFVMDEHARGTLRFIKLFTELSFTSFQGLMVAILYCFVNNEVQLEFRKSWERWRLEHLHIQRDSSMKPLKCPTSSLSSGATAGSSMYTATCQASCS

Compound | GLP-1R internalization profile (hGLP-1R) | semaglutide clearance with ectopic hepatic GLP-1R [1] | Heart rate effect of semaglutide + Glp1r AAV (C57Bl6 mice)
tirzepatide | low receptor internalising profile |  | 
CC[C@H](C)[C@H](NC(=O)[C@H](Cc1ccccc1)NC(=O)[C@H](CCC(=O)O)NC(=O)[C@H](CCCCNC(=O)COCCOCCNC(=O)COCCOCCNC(=O)CC[C@H](NC(=O)CCCCCCCCCCCCCCCCC(=O)O)C(=O)O)NC(=O)[C@H](C)NC(=O)[C@H](C)NC(=O)[C@H](CCC(N)=O)NC(=O)CNC(=O)[C@H](CCC(=O)O)NC(=O)[C@H](CC(C)C)NC(=O)[C@H](Cc1ccc(O)cc1)NC(=O)[C@H](CO)NC(=O)[C@H](CO)NC(=O)[C@@H](NC(=O)[C@H](CC(=O)O)NC(=O)[C@H](CO)NC(=O)[C@@H](NC(=O)[C@H](Cc1ccccc1)NC(=O)[C@@H](NC(=O)CNC(=O)[C@H](CCC(=O)O)NC(=O)C(C)(C)NC(=O)[C@@H](N)Cc1cnc[nH]1)[C@@H](C)O)[C@@H](C)O)C(C)C)C(=O)N[C@@H](C)C(=O)N[C@@H](Cc1c[nH]c2ccccc12)C(=O)N[C@@H](CC(C)C)C(=O)N[C@H](C(=O)N[C@@H](CCCNC(=N)N)C(=O)NCC(=O)N[C@@H](CCCNC(=N)N)C(=O)NCC(=O)O)C(C)C [semaglutide] |  | significant increase in semaglutide clearance | reduces this effect
